IC50 data for 13 molecules are collected here from patent US8901118B2, “Compounds and methods for kinase modulation, and indications therefor” (Plexxikon Inc., priority 2010, dated 2014).

The target of one assay is T1, BCR-NTRK3 BaF3 cells (Homo sapiens, UniProt Q16288).
T1 construct: fused on or other part: P11274 (Breakpoint cluster region protein)
The experiment in a line: BaF3 BCR-NTRK3 cell proliferation assay (ATPlite). In kind it is cell-based. The conditions noted are these: read-out: Inhibition of Cell Proliferation IC50, BCR/BaF3 TrkC. In outline:
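Proliferation was run for 3 days at 37 °C against 8-point 1:3 titrations with 10 μM as the top final concentration. Seeding was 10,000 cells/well for BaF3 BCR-fusion lines, grown without IL-3, and 25,000 cells/well for MV-4-11. IC50 was derived from ATPlite luminescence read as cell number.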

A further assay deals with c-Kit kinase (Homo sapiens, UniProt P10721). Kind of assay: c-Kit kinase biochemical activity assay (AlphaScreen, biotin-(E4Y)10 phosphorylation). The conditions noted are these: 100 μM ATP; read-out: Biochemical Inhibition IC50 Kit. In outline:
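AlphaScreen read-out (streptavidin donor, anti-phosphotyrosine PY20 acceptor beads, EDTA stop) of c-Kit activity. Reaction: 0.75 ng kinase, 100 µM ATP, 30 nM biotin-(E4Y)10, 25 mM HEPES pH 7.5, 2 mM MgCl2, 2 mM MnCl2, 5% DMSO, 1 h room temperature. IC50 derived over an 8-point, two-fold dilution series.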

T1 sequence (Q16288 whole entry, the tested form may be a part): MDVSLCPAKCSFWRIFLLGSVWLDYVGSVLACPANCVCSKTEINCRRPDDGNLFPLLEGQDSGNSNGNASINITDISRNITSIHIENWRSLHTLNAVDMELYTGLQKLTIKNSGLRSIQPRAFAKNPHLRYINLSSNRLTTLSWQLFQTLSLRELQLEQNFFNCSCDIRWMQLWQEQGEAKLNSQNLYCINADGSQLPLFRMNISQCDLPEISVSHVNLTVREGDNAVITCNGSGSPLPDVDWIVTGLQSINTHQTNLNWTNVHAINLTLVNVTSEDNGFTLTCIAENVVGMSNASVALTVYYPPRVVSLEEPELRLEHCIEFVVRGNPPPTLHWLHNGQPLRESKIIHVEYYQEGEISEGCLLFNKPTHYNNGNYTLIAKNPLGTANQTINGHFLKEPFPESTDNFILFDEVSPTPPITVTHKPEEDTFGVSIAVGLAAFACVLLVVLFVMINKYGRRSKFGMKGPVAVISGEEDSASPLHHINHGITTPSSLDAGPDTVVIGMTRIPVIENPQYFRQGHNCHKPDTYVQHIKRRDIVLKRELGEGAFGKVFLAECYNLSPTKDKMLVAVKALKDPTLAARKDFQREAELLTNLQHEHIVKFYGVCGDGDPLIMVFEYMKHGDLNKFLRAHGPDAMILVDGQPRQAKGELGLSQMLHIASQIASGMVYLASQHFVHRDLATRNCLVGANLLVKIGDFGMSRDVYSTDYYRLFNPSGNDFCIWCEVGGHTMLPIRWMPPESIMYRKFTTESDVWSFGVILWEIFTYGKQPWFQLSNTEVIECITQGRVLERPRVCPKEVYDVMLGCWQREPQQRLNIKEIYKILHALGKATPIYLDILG
Chain of c-Kit kinase (P10721 26-976): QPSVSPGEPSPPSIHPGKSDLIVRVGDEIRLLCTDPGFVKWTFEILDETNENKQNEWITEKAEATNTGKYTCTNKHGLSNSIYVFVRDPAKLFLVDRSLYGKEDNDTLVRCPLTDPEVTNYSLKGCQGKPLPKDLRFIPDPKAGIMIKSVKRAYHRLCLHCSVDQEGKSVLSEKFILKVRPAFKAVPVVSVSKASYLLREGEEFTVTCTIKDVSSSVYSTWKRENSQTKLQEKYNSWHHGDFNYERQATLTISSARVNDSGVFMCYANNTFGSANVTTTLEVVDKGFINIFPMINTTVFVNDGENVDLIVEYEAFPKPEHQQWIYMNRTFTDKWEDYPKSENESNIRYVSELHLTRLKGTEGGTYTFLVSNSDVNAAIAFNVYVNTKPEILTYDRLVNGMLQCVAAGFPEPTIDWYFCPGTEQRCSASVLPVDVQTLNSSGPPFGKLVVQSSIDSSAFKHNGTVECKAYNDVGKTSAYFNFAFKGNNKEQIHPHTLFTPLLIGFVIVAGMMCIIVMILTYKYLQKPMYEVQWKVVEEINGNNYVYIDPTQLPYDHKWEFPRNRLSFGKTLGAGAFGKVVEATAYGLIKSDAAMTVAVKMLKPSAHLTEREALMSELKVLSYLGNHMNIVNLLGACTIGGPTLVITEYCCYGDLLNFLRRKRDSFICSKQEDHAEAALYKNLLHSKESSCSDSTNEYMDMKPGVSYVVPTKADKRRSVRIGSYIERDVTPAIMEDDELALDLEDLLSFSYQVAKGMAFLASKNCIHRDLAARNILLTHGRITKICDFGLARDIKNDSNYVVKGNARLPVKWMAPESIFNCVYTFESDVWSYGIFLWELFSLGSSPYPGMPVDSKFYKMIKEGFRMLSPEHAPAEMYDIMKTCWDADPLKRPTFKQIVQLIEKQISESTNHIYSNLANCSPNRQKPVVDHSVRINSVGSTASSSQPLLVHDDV

With `Clc1cnc2[nH]cc(Cc3cnc(NC4CCC4)nc3)c2c1` [Compound P-3007, [5-(5-Chloro-1H-pyrrolo[2,3-b]pyridin-3-ylmethyl)-pyrimidin-2-yl]-cyclobutyl-amine], the IC50 is more than 10000 nM on BCR-NTRK3 BaF3 cells and more than 1000 nM at c-Kit kinase. Consider `Cc1cnc2[nH]cc(Cc3ccc(NC4CCCCC4)nc3F)c2c1` [Compound P-3008, cyclohexyl-[6-fluoro-5-(5-methyl-1H-pyrrolo[2,3-b]pyridin-3-ylmethyl)-pyridin-2-yl]-amine], for which the IC50 on c-Kit kinase is less than 1000 nM. `O=C(c1ccc(Nc2ccc(C3CC3)nc2)nc1F)c1c[nH]c2ncnc(C3CC3)c12` [Compound P-4040, [6-(6-Cyclopropyl-pyridin-3-ylamino)-2-fluoro-pyridin-3-yl]-(4-cyclopropyl-7H-pyrrolo[2,3-d]pyrimidin-5-yl)-methanone]: the IC50 at BCR-NTRK3 BaF3 cells was less than 10 nM; at c-Kit kinase, less than 100 nM.

On to `Fc1nc(Nc2ccc(C3CC3)nc2)ccc1Cc1c[nH]c2ncnc(C3CC3)c12` [Compound P-4041, (6-Cyclopropyl-pyridin-3-yl)-[5-(4-cyclopropyl-7H-pyrrolo[2,3-d]pyrimidin-5-ylmethyl)-6-fluoro-pyridin-2-yl]-amine], for which the IC50 at BCR-NTRK3 BaF3 cells was less than 10 nM; at c-Kit kinase it was less than 100 nM. On the same counts, the results for `Nc1ncnc2[nH]cc(C(=O)c3ccc(NC4CCC(F)(F)CC4)nc3Cl)c12` [Compound P-4046, (4-amino-7H-pyrrolo[2,3-d]pyrimidin-5-yl)-[2-chloro-6-[(4,4-difluorocyclohexyl)amino]-3-pyridyl]methanone] are less than 1000 nM and less than 1000 nM. The matching figures for `CC(C)=CNc1ncnc2[nH]cc(C(=O)c3ccc(NC4CCC(F)(F)CC4)nc3Cl)c12` [Compound P-4047, [2-chloro-6-[(4,4-difluorocyclohexyl)amino]-3-pyridyl]-[4-(2-methylprop-1-enylamino)-7H-pyrrolo[2,3-d]pyrimidin-5-yl]methanone]: more than 1000 nM and more than 1000 nM. In the case of `Nc1ncnc2[nH]cc(C(=O)c3ccc(Nc4ccc(C5CC5)nc4)nc3F)c12` [Compound P-4048, (4-amino-7H-pyrrolo[2,3-d]pyrimidin-5-yl)-[6-[(6-cyclopropyl-3-pyridyl)amino]-2-fluoro-3-pyridyl]methanone], the IC50 on BCR-NTRK3 BaF3 cells and on c-Kit kinase was less than 10 nM in each case. Turning to `CC(C)(O)CNc1ncnc2[nH]cc(C(=O)c3ccc(Nc4ccc(C5CC5)nc4)nc3F)c12` [Compound P-4049, [6-[(6-cyclopropyl-3-pyridyl)amino]-2-fluoro-3-pyridyl]-[4-[(2-hydroxy-2-methyl-propyl)amino]-7H-pyrrolo[2,3-d]pyrimidin-5-yl]methanone], the IC50 on BCR-NTRK3 BaF3 cells and at c-Kit kinase was less than 1000 nM throughout. For `CCNc1ncnc2[nH]cc(C(=O)c3ccc(NC4CCC(F)(F)CC4)nc3Cl)c12` [Compound P-4050, [2-chloro-6-[(4,4-difluorocyclohexyl)amino]-3-pyridyl]-[4-(ethylamino)-7H-pyrrolo[2,3-d]pyrimidin-5-yl]methanone], the IC50 at BCR-NTRK3 BaF3 cells and at c-Kit kinase was less than 1000 nM each time.

Regarding `CCNc1ncnc2[nH]cc(C(=O)c3cnc(NC4CCC(F)(F)CC4)c(F)c3)c12` [Compound P-4051, [6-[(4,4-difluorocyclohexyl)amino]-5-fluoro-3-pyridyl]-[4-(ethylamino)-7H-pyrrolo[2,3-d]pyrimidin-5-yl]methanone], the IC50 is less than 10 nM on BCR-NTRK3 BaF3 cells and less than 1000 nM at c-Kit kinase. On to `O=C(c1cnc(NC2CCC(F)(F)CC2)c(F)c1)c1c[nH]c2ncnc(NCC(F)(F)F)c12` [Compound P-4052, [6-[(4,4-difluorocyclohexyl)amino]-5-fluoro-3-pyridyl]-[4-(2,2,2-trifluoroethylamino)-7H-pyrrolo[2,3-d]pyrimidin-5-yl]methanone], for which the IC50 was less than 10 nM at BCR-NTRK3 BaF3 cells and more than 1000 nM at c-Kit kinase. On the same counts, the results for `O=C(c1cnc(NC2CCC(F)(F)CC2)c(F)c1)c1c[nH]c2ncnc(NC3CC3)c12` [Compound P-4053, [4-(cyclopropylamino)-7H-pyrrolo[2,3-d]pyrimidin-5-yl]-[6-[(4,4-difluorocyclohexyl)amino]-5-fluoro-3-pyridyl]methanone] are less than 10 nM and less than 1000 nM.

For `CNc1ncnc2[nH]cc(C(=O)c3cnc(NC4CCC(F)(F)CC4)c(F)c3)c12` [Compound P-4054, [6-[(4,4-difluorocyclohexyl)amino]-5-fluoro-3-pyridyl]-[4-(methylamino)-7H-pyrrolo[2,3-d]pyrimidin-5-yl]methanone], the results for the IC50 at BCR-NTRK3 BaF3 cells and at c-Kit kinase were less than 10 nM and more than 1000 nM, respectively.
